US20100317528A1, “HERBICIDE CONTAINING BENZOYLPYRAZOLE COMPOUND” (ISHIHARA SANGYO KAISHA, LTD., priority 2006, published 2010)

Assays:
Type in all cases: in vivo
[1] = test system: barnyardgrass (Echinochloa crus-galli L.); assay: Test Example 1: foliar treatment, upland pot test, barnyardgrass; conditions: 31 g/ha active ingredient, observed 17th to 25th day after application
[2] = test system: crabgrass (Digitaria sanguinalis L.); assay: Test Example 1: foliar treatment, upland pot test, crabgrass; conditions: 31 g/ha active ingredient, observed 17th to 25th day after application
[3] = test system: green foxtail (Setaria viridis L.); assay: Test Example 1: foliar treatment, upland pot test, green foxtail; conditions: 31 g/ha active ingredient, observed 17th to 25th day after application
[4] = test system: redroot pigweed (Amaranthus retroflexus L.); assay: Test Example 1: foliar treatment, upland pot test, redroot pigweed; conditions: 31 g/ha active ingredient, observed 17th to 25th day after application
Procedure, shortened: (§1)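 Upland soil pots, sown; foliar spray at pigweed cotyledon–2.0 leaf, velvetleaf 0.1–1.5 leaf, rice 1.0–3.0 leaf, wheat 1.7–3.4 leaf. WP/EC formulations, prescribed a.i. rate, 500 L/ha spray volume + 0.1 vol % spreader. Visual % inhibition, d17–25.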

[5] = test system: prickly sida (Sida spinosa L.); assay: Test Example 1: foliar treatment, upland pot test, prickly sida; conditions: 31 g/ha active ingredient, observed 17th to 25th day after application
[6] = test system: velvetleaf (Abutilon theophrasti MEDIC.); assay: Test Example 1: foliar treatment, upland pot test, velvetleaf; conditions: 31 g/ha active ingredient, observed 17th to 25th day after application
Procedure, shortened: as §1

rice (Oryza sativa L.) [7] = assay: Test Example 1: foliar treatment, upland pot test, rice; conditions: 31 g/ha active ingredient, observed 17th to 25th day after application
Procedure, shortened: as §1

wheat (Triticum spp.) [8] = assay: Test Example 1: foliar treatment, upland pot test, wheat; conditions: 31 g/ha active ingredient, observed 17th to 25th day after application
Procedure, shortened: as §1

corn (Zea mays L.) [9] = assay: Test Example 1: foliar treatment, upland pot test, corn; conditions: 31 g/ha active ingredient, observed 17th to 25th day after application
[10] = test system: soybean (Glycine max Merr.); assay: Test Example 1: foliar treatment, upland pot test, soybean; conditions: 31 g/ha active ingredient, observed 17th to 25th day after application
[11] = test system: barnyardgrass (Echinochloa crus-galli L.); assay: Test Example 2: soil application on the day after sowing, barnyardgrass; conditions: 250 g/ha active ingredient, observed 19th to 28th day after application
Procedure, shortened: (§2)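 Herbicidal activity is scored on a 0–100% visual scale of growth inhibition 19–28 d after treatment. The active ingredient, weighed to prescribed doses, is applied as a diluted formulation (500 L water/ha) to soil one day post-sowing.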

[12] = test system: crabgrass (Digitaria sanquinalis L.); assay: Test Example 2: soil application on the day after sowing, crabgrass; conditions: 250 g/ha active ingredient, observed 19th to 28th day after application
Procedure, shortened: as §2

[13] = test system: green foxtail (Setaria viridis L.); assay: Test Example 2: soil application on the day after sowing, green foxtail; conditions: 250 g/ha active ingredient, observed 19th to 28th day after application
Procedure, shortened: as §2

[14] = test system: redroot pigweed (Amaranthus retroflexus L.); assay: Test Example 2: soil application on the day after sowing, redroot pigweed; conditions: 250 g/ha active ingredient, observed 19th to 28th day after application
Procedure, shortened: as §2

[15] = test system: prickly sida (Sida spinosa L.); assay: Test Example 2: soil application on the day after sowing, prickly sida; conditions: 250 g/ha active ingredient, observed 19th to 28th day after application
Procedure, shortened: as §2

[16] = test system: velvetleaf (Abutilon theophrasti MEDIC.); assay: Test Example 2: soil application on the day after sowing, velvetleaf; conditions: 250 g/ha active ingredient, observed 19th to 28th day after application
Procedure, shortened: as §2

rice (Oryza sativa L.) [17] = assay: Test Example 2: soil application on the day after sowing, rice; conditions: 250 g/ha active ingredient, observed 19th to 28th day after application
Procedure, shortened: as §2

wheat (Triticum spp.) [18] = assay: Test Example 2: soil application on the day after sowing, wheat; conditions: 250 g/ha active ingredient, observed 19th to 28th day after application
Procedure, shortened: as §2

corn (Zea mays L.) [19] = assay: Test Example 2: soil application on the day after sowing, corn; conditions: 250 g/ha active ingredient, observed 19th to 28th day after application
Procedure, shortened: as §2

[20] = test system: soybean (Glycine max Merr.); assay: Test Example 2: soil application on the day after sowing, soybean; conditions: 250 g/ha active ingredient, observed 19th to 28th day after application
Procedure, shortened: as §2

[21] = test system: green foxtail (Setaria viridis L.); assay: Test Example 3: foliar treatment at later leaf stage, green foxtail; conditions: 4.0 to 4.5 leaf stage, MSO Concentrate 0.5 vol %, 300 L/ha
Text: (§3) Upland field soil was put into a 1/1,000,000 hectare pot, and seeds of various plants were sown. When the respective plants reached predetermined leaf stage ((1) green foxtail (Setaria viridis L.): 4.0 to 4.5 leaf stage, (2) guineagrass (Panicum maximum Jacq.): 3.5 to 4.3 leaf stage, and (3) corn (Zea mays L.): 4.0 to 4.3 leaf stage, wettable powders or emulsifiable concentrates of compounds of the above formula (I), prepared in accordance with a conventional preparation method, were weighed so that the active ingredients became the prescribed amounts, and diluted with water in an amount corresponding to 300 or 500 liter per 1 hectare (containing of an agricultural spreader (MSO concentrate, manufactured by Cognis Corporation or “KUSARINOH”, manufactured by NIHON NOHYAKU CO., LTD.). The spray solutions thus prepared were applied for foliar treatment by a small sprayer.
(§4) On the 18th to 24th day after application, the state of growth of the respective plants was visually observed, and the herbicidal effect was evaluated by a growth inhibition rate (%) of 0 (equivalent to the non-treated area) to 100% (complete kill).

[22] = test system: guineagrass (Panicum maximum Jacq.); assay: Test Example 3: foliar treatment at later leaf stage, guineagrass; conditions: 3.5 to 4.3 leaf stage, KUSARINOH 0.1 vol %, 500 L/ha
Text: as §3, §4

corn (Zea mays L.) [23] = assay: Test Example 3: foliar treatment at later leaf stage, corn; conditions: 4.0 to 4.3 leaf stage, MSO Concentrate 0.5 vol %, 300 L/ha
Text: as §3, §4

[24] = Amaranthus retroflexus, read-out: Growth inhibition rate (%) Redroot pigweed
[25] = Abutilon theophrasti, read-out: Growth inhibition rate (%) Velvetleaf
[26] = Zea mays, read-out: Growth inhibition rate (%) Corn

| SMILES | Growth inhibition rate (%) Barnyardgrass [1] [%] | Growth inhibition rate (%) Crabgrass [2] [%] | Growth inhibition rate (%) Green foxtail [3] [%] | Growth inhibition rate (%) Redroot pigweed [4] [%] | Growth inhibition rate (%) Prickly sida [5] [%] | Growth inhibition rate (%) Velvetleaf [6] [%] | Growth inhibition rate (%) Rice (rice (Oryza sativa L.) [7]) [%] | Growth inhibition rate (%) Wheat (wheat (Triticum spp.) [8]) [%] | Growth inhibition rate (%) Corn (corn (Zea mays L.) [9]) [%] | Growth inhibition rate (%) Soybean [10] [%] | Growth inhibition rate (%) Barnyardgrass [11] [%] | Growth inhibition rate (%) Crabgrass [12] [%] | Growth inhibition rate (%) Green foxtail [13] [%] | Growth inhibition rate (%) Redroot pigweed [14] [%] | Growth inhibition rate (%) Prickly sida [15] [%] | Growth inhibition rate (%) Velvetleaf [16] [%] | Growth inhibition rate (%) Rice (rice (Oryza sativa L.) [17]) [%] | Growth inhibition rate (%) Wheat (wheat (Triticum spp.) [18]) [%] | Growth inhibition rate (%) Corn (corn (Zea mays L.) [19]) [%] | Growth inhibition rate (%) Soybean [20] [%] | other results |
| --- | --- | --- | --- | --- | --- | --- | --- | --- | --- | --- | --- | --- | --- | --- | --- | --- | --- | --- | --- | --- | --- |
| COCCOc1c(S(C)(=O)=O)ccc(C(=O)c2cnn(C(C)C)c2O)c1C [compound 258] | 100 | 100 | 100 | 95 | 50 | 98 | 95 | 0 | 10 | 90 | 100 | 100 | 100 | 100 | 40 | 100 | 80 | 0 | 0 | 0 | Growth inhibition rate (%) (24th day after application) Green foxtail ([21]; 7 g/ha): 95%; Growth inhibition rate (%) (24th day after application) Green foxtail ([21]; 15 g/ha): 100% |
| CCn1ncc(C(=O)c2ccc(S(C)(=O)=O)c(OCCOC)c2C)c1O [compound 131] | 100 | 100 | 100 | 100 | 70 | 100 | 70 | 30 | 10 | 100 | 100 | 100 | 100 | 100 | 30 | 90 | 100 | 40 | 30 | 40 | Growth inhibition rate (%) (24th day after application) Green foxtail ([21]; 7 g/ha): 98%; Growth inhibition rate (%) (24th day after application) Green foxtail ([21]; 15 g/ha): 100%; Growth inhibition rate (%) (18th day after application) Guineagrass ([22]; 31 g/ha): 93%; Growth inhibition rate (%) (21st day after application) Corn (corn (Zea mays L.) [23]; 120 g/ha): 0% |
| COCCOc1c(S(C)(=O)=O)ccc(C(=O)c2cnn(C)c2O)c1C [Compound No. 151, 5-hydroxy-1-methylpyrazol-4-yl 3-(2-methoxyethoxy)-2-methyl-4-(methylsulfonyl)phenyl ketone] |  |  |  |  |  |  |  |  |  |  |  |  |  |  |  |  |  |  |  |  | inhibition at 31 g/ha ([1]; Echinochloa crus-galli, read-out: Growth inhibition rate (%) Barnyardgrass): 100%; inhibition at 31 g/ha ([2]; Digitaria sanguinalis, read-out: Growth inhibition rate (%) Crabgrass): 100%; inhibition at 31 g/ha ([3]; Setaria viridis, read-out: Growth inhibition rate (%) Green foxtail): 100%; inhibition at 31 g/ha [4, 24]: 100%; inhibition at 31 g/ha ([5]; Sida spinosa, read-out: Growth inhibition rate (%) Prickly sida): 80%; inhibition at 31 g/ha [6, 25]: 98%; inhibition at 31 g/ha (rice (Oryza sativa L.) [7]; Oryza sativa, read-out: Growth inhibition rate (%) Rice): 60%; inhibition at 31 g/ha (wheat (Triticum spp.) [8]; Triticum, read-out: Growth inhibition rate (%) Wheat): 10%; inhibition at 31 g/ha (corn (Zea mays L.) [9]; [26]): 30%; inhibition at 31 g/ha ([10]; Glycine max, read-out: Growth inhibition rate (%) Soybean): 95%; inhibition at 250 g/ha ([12]; Digitaria, read-out: Growth inhibition rate (%) Crabgrass): 100%; inhibition at 250 g/ha [14, 24]: 100%; inhibition at 250 g/ha [16, 25]: 70%; inhibition at 250 g/ha (corn (Zea mays L.) [19]; [26]): 0%; inhibition at 7 g/ha ([21]; Setaria viridis, 7 g/ha, read-out: Growth inhibition rate (%) (24th day after application) Green foxtail): 97%; inhibition at 15 g/ha ([21]; Setaria viridis, 15 g/ha, read-out: Growth inhibition rate (%) (24th day after application) Green foxtail): 100%; inhibition at 31 g/ha ([22]; Megathyrsus maximus, read-out: Growth inhibition rate (%) (18th day after application) Guineagrass): 93%; inhibition at 120 g/ha (corn (Zea mays L.) [23]; Zea mays, read-out: Growth inhibition rate (%) (21st day after application) Corn): 2% |
